The source of these data is patent US20150218212A1, “FLUORINATED EPOXYKETONE-BASED TETRAPEPTIDE COMPOUNDS AND USES THEREOF AS PROTEASOME INHIBITORS” (FLUORINOV PHARMA INC., priority 2012, published 2015).

A value given as a limit tells only on which side of the number the result lay.

In one assay the test system is KMS-11. Briefly: Cell viability (MTS) assay, KMS-11. The conditions noted are these: Homo sapiens; KMS-11, MTS, 72 hours, mean ± standard deviation. The format is cell-based. The method, then: Human multiple myeloma cell lines 8226, H929, JJN3, KMH11, KMS11, KMS18, LP1, MM1S, OPM2 and U266 were grown in Iscove modified Dulbecco's medium (IMDM). Human leukemia cell lines K562, OCI-AML2 and U937 were cultured in RPMI-1640 medium. Primary peripheral blood mononuclear cells were isolated from multiple myeloma patients by Ficoll density gradient centrifugation and bone marrow aspirates were obtained from multiple myeloma patients at the Princess Margaret Cancer Centre of the University Health Network (UHN; Toronto, ON, Canada). Primary cells were cultured in IMDM. The collection and use of human tissue for this study was approved by the UHN institutional ethics review board. All cell culture media were obtained from the Ontario Cancer Institute Tissue Culture Media Facility (Toronto, ON, Canada) and were supplemented with 10% fetal calf serum, […] (Hyclone, Logan, Utah). All cells were grown in a humidified incubator at 37° C. with 5% CO2.
Cellular viability was primarily assessed by 3-(4,5-dimethylthiazol-2-yl)-5-(3-carboxymethoxyphenyl)-2-(4-sulfophenyl)-2H-tetrazolium (MTS) assay according to the manufacturer's instructions (Promega; Madison, Wis.). Cells were first seeded at a density of 10,000 cells per well in tissue culture-treated 96-well plates. Two hours after seeding, cells were treated with compounds for 72 hours at concentrations as indicated. As a control, cells were treated with DMSO alone in every assay plate. Following treatment and the MTS assay, cell viability was independently confirmed by reading the optical density (O.D.) at 490 nm and by exclusion of trypan blue stain (Invitrogen; Burlington, ON, Canada). The viability of primary mononuclear cells was determined by staining with Annexin V.
Table 8 summarizes the data of representative compounds of Formula I for cell viability and CT-L proteasome activity with OCI-AML-2 and KMS-11 cell lines.

The next assay has as its system SNB-75. Briefly: NCI screening panel, SNB-75 (CNS Cancer). It counts as cell-based, human. On the procedure:
(§1) Representative compounds of Formula I were screened using the National Cancer Institute (NCI) screening panel, which consists of a panel of human tumor cell lines, representing leukemia, melanoma, and cancers of the lung, colon, ovary, breast, prostate and renal system.
(§2) After 24 h, two plates of each cell line are fixed in situ with TCA, to represent a measurement of the cell population for each cell line at the time of drug addition (Tz). Experimental drugs are solubilised in dimethyl sulfoxide at 400-fold the desired final maximum test concentration and stored frozen prior to use. At the time of drug addition, an aliquot of frozen concentrate is thawed and diluted to twice the desired final maximum test concentration with complete medium containing 50 μg/mL gentamicin. Additional four, 10-fold or ½ log serial dilutions are made to provide a total of five drug concentrations plus control. Aliquots of 100 μl of these different drug dilutions are added to the appropriate microtiter wells already containing 100 μl of medium, resulting in the required final drug concentrations.
(§3) Following drug addition, the plates are incubated for an additional 48 h at 37° C., 5% CO2, 95% air, and 100% relative humidity. For adherent cells, the assay is terminated by the addition of cold TCA (trichloroacetic acid). Cells are fixed in situ by the gentle addition of 50 μl of cold 50% (w/v) TCA (final concentration, 10% TCA) and incubated for 60 minutes at 4° C. The supernatant is discarded, and the plates are washed five times with tap water and air dried. Sulforhodamine B (SRB) solution (100 μl) at 0.4% (w/v) in 1% acetic acid is added to each well, and plates are incubated for 10 minutes at room temperature. After staining, unbound dye is removed by washing five times with 1% acetic acid and the plates are air dried. Bound stain is subsequently solubilised with 10 mM trizma base, and the absorbance is read on an automated plate reader at a wavelength of 515 nm. For suspension cells, the methodology is the same except that the assay is terminated by fixing settled cells at the bottom of the wells by gently adding 50 μl of 80% TCA (final concentration, 16% TCA). Using the seven absorbance measurements [time zero, (Tz), control growth, (C), and test growth in the presence of drug at the five concentration levels (Ti)], the percentage growth is calculated at each of the drug concentrations levels. Percentage growth inhibition is calculated as: [(Ti−Tz)/(C−Tz)]×100 for concentrations for which Ti>/=Tz and [(Ti−Tz)/Tz]×100 for concentrations for which Ti<Tz.
(§4) Three dose response parameters are calculated for each experimental agent. Growth inhibition of 50% (GI50) is calculated from [(Ti−Tz)/(C−Tz)]×100=50, which is the drug concentration resulting in a 50% reduction in the net protein increase (as measured by SRB staining) in control cells during the drug incubation. The drug concentration resulting in total growth inhibition (TGI) is calculated from Ti=Tz. The LC50 (concentration of drug resulting in a 50% reduction in the measured protein at the end of the drug treatment as compared to that at the beginning) indicating a net loss of cells following treatment is calculated from [(Ti−Tz)/Tz]×100=−50. Values are calculated for each of these three parameters if the level of activity is reached. However, if the effect is not reached or is exceeded, the value for that parameter is expressed as greater or less than the maximum or minimum concentration tested.

The next assay concerns SNB-19. Briefly: NCI screening panel, SNB-19 (CNS Cancer). The format is cell-based, human. On the procedure: as §1, §2, §3, §4
For another assay, the system named is 786-0. Briefly: NCI screening panel, 786-0 (Renal Cancer). The format is cell-based, human. On the procedure: as §1, §2, §3, §4
A further assay has as its system NCI-H226. Briefly: NCI screening panel, NCI-H226 (Non-Small Cell Lung Cancer). It counts as cell-based, human. The method, then:
as §1, §2, §3, §4

A further assay concerns U251. Briefly: NCI screening panel, U251 (CNS Cancer). The format is cell-based, human. On the procedure:
as §1, §2, §3, §4

`CC(C)C[C@H](NC(=O)[C@H](COC(F)F)NC(=O)CN1CCOCC1)C(=O)N[C@@H](COC(F)F)C(=O)N[C@@H](CC(C)C)C(=O)[C@@]1(C)CO1` [Example 1, (2S)—N-[(1S)-1-(difluoromethoxymethyl)-2-[[(1S)-3-methyl-1-[(2R)-2-methyloxirane-2-carbonyl]butyl]amino]-2-oxo-ethyl]-2-[[(2S)-3-(difluoromethoxy)-2-[(2-morpholinoacetyl)amino]propanoyl]amino]-4-methyl-pentanamide] displayed an IC50 in the assay on KMS-11 of 26.6 ± 8.47 nM. The Log10GI50 was −7.66 in the assay on SNB-75; −7.22 in the assay on SNB-19; −6.60 with 786-0; −7.73 with NCI-H226; −7.58 with U251. For the same compound, the Log10LC50 is listed as −5.88 in the assay on SNB-75; greater than −4.00 in the assay with SNB-19; −5.05 in the assay on 786-0; −7.07 with NCI-H226; greater than −4.00 in the assay with U251. Moreover, the Log10TGI50 is on record as −7.29 with SNB-75; greater than −4.00 in the assay with SNB-19; −5.84 in the assay with 786-0; −7.40 with NCI-H226; −6.75 in the assay on U251.

With `CC(C)C[C@H](NC(=O)[C@H](COC(F)F)NC(=O)CN1CCOCC1)C(=O)N[C@@H](Cc1ccccc1)C(=O)N[C@@H](CC(C)C)C(=O)[C@@]1(C)CO1` [Example 2, (2S)-N-[(1S)-1-benzyl-2-[[(1S)-3-methyl-1-[(2R)-2-methyloxirane-2-carbonyl]butyl]-amino]-2-oxo-ethyl]-2-[[(2S)-3-(difluoromethoxy)-2-[(2-morpholinoacetyl)amino]propanoyl]amino]-4-methyl-pentanamide], the IC50 with KMS-11 is 21.9 ± 0.342 nM. In addition, the Log10GI50 is −7.75 with SNB-75; −7.18 in the assay on SNB-19; −7.09 in the assay on 786-0; −7.83 with NCI-H226; −7.72 in the assay with U251. Moreover, the Log10LC50 with SNB-75 was −5.91; with SNB-19 it was greater than −4.00; in the assay with 786-0, greater than −4.00; in the assay with NCI-H226, −7.12; with U251, −5.63. Also, the Log10TGI50 in the assay with SNB-75 is reported as −7.30; in the assay on SNB-19, greater than −4.00; in the assay with 786-0, −6.01; with NCI-H226, −7.48; in the assay with U251 it was −6.87.

Take `CC(C)C[C@H](NC(=O)[C@H](COC(F)F)NC(=O)CN1CCOCC1)C(=O)N[C@@H](Cc1ccccc1)C(=O)N[C@@H](Cc1ccccc1)C(=O)[C@@]1(C)CO1` [Example 3, (2S)-N-[(1S)-1-benzyl-2-[[(1S)-1-benzyl-2-[(2R)-2-methyloxiran-2-yl]-2-oxo-ethyl]amino]-2-oxo-ethyl]-2-[[(2S)-3-(difluoromethoxy)-2-[(2-morpholinoacetyl)-amino]propanoyl]amino]-4-methyl-pentan-amide]: in the assay with KMS-11, the IC50 stood at 17.6 ± 0.629 nM. For the same compound, the Log10GI50 is −7.66 in the assay with SNB-75; −7.66 with SNB-19; −7.22 in the assay with 786-0; less than −8.00 in the assay on NCI-H226; less than −8.00 with U251. Further, the Log10LC50 in the assay with SNB-75 is given as −4.61; in the assay with SNB-19, greater than −4.00; with 786-0, −4.14; in the assay with NCI-H226, −7.24; in the assay with U251 it was −5.14. In addition, the Log10TGI50 is listed as −7.11 with SNB-75; −4.54 in the assay on SNB-19; −5.77 in the assay on 786-0; −7.92 in the assay with NCI-H226; −6.79 with U251.

In the assay with KMS-11, `CC(C)C[C@H](NC(=O)[C@H](COC(F)F)NC(=O)CN1CCOCC1)C(=O)N[C@@H](COC(F)F)C(=O)N[C@@H](Cc1ccccc1)C(=O)[C@@]1(C)CO1` [Example 4, (2S)-N-[(1S)-2-[[(1S)-1-benzyl-2-[(2R)-2-methyloxiran-2-yl]-2-oxo-ethyl]amino]-1-(difluoromethoxymethyl)-2-oxo-ethyl]-2-[[(2S)-3-(difluoromethoxy)-2-[(2-mor-pholinoacetyl)amino]propanoyl]amino]-4 methyl-pentanamide] registered a half-maximal inhibitory concentration (IC50) of 33.9 ± 2.11 nM. The Log10GI50 in the assay with SNB-75 is recorded as −7.70; with SNB-19, −7.14; in the assay with 786-0 it was −6.44; in the assay with NCI-H226 it was −7.66; in the assay with U251, −7.44. The Log10LC50 with SNB-75 was −6.25; with SNB-19 it was greater than −4.00; in the assay with 786-0 it was −4.27; in the assay with NCI-H226, −6.57; in the assay on U251, −4.62. The Log10TGI50 in the assay with SNB-75 was −7.25; in the assay on SNB-19, greater than −4.00; with 786-0 it was −5.58; in the assay on NCI-H226 it was −7.30; with U251, −6.48.

In the case of `CC(C)C[C@H](NC(=O)[C@H](COC(F)F)NC(=O)[C@H](COC(F)F)NC(=O)[C@H](CCc1ccccc1)NC(=O)CN1CCOCC1)C(=O)[C@@]1(C)CO1` [Example 7, (2S)-N-[(1S)-1-(difluoromethoxymethyl)-2-[[(1S)-1-(difluoromethoxymethyl)-2-[[(1S)-3-methyl-1-[(2R)-2-methyloxirane-2-carbo-nyl]butyl]amino]-2-oxo-ethyl]amino]-2-oxo-ethyl]-2-[(2-morpholinoacetyl)amino]-4-phenyl-butanamide], in the assay on KMS-11, the IC50 turned out to be 19.8 ± 0.532 nM. Moreover, the Log10GI50 is listed as −7.65 in the assay with SNB-75; −7.14 in the assay with SNB-19; −6.45 in the assay on 786-0; −7.75 in the assay on NCI-H226; −7.63 in the assay with U251. Further, the Log10LC50 in the assay with SNB-75 was −4.01; with SNB-19, greater than −4.00; in the assay on 786-0, greater than −4.00; in the assay with NCI-H226, −7.08; with U251, −5.04. The Log10TGI50 is reported as −7.16 with SNB-75; greater than −4.00 in the assay on SNB-19; −5.33 in the assay with 786-0; −7.41 in the assay on NCI-H226; −6.79 in the assay on U251.
